This note sets out measurements from US11266686B2, “Metal complexes and methods of treatment” (PROCYPRA THERAPEUTICS LLC, priority 2013, dated 2022).

One data set deals with MPTP lesioned mice. The experiment in a line: Stool frequency in MPTP lesioned mice. Conditions: versus vehicle or untreated. It is filed as in vivo, C57BL/6 mice. The text has this:
Several rodent models of Parkinson's Disease have shown gastrointestinal dysfunction, which has been correlated with the loss of neuronal subpopulations within the enteric nervous system. Intraperitoneal administration of MPTP (1-methyl-4-phenyl-1,2,3,6-tetrahydropyridine) caused a significant reduction in the number of dopaminergic neurons within the substantia nigra pars compacta of C57BL/6 mice. A reduction in neuronal subpopulations within the myenteric plexus of the ileum 21 days after lesioning was also detected and was concomitant with a reduction in stool frequency, indicative of digestive dysfunction.
Patients with neurological diseases, such as Parkinson's Diseases experiencing gastrointestinal disfunction such as constipation, may be associated with the loss of neuronal populations in conjunction with enteric glial cell reactivity within the myenteric plexus of the gastrointestinal tract. Treatment of these patients with metal complexes, such as CuATSM, that are neuroprotective in the central nervous system provides symptom release and also results in disease modifying in the gastrointestinal tract.
MPTP lesioned mice may be treated with the NCD of CuATSM, and the results are compared with untreated mice.

Data set [1] in a line: Cu-63 in brain and plasma of treated MPTP-lesioned mice by ICPMS. On the procedure:
CuATSM:gluconic acid (1:2) was prepared according to the method of EXAMPLE 7. CuATSM:saccharin (1:2) was prepared according to the methods of EXAMPLE 3. CuATSM was suspended in “Standard Suspension Vehicle” (SSV), consisting of 0.9% (w/v) NaCl, 0.5% (w/v) sodium carboxymethylcellulose, 0.5% (v/v) benzyl alcohol, and 0.4% (v/v) Tween 80 in deionized water. CuATSM:gluconic acid (1:2) and CuATSM:saccharin (1:2) were suspended in sterile water. Samples were prepared by adding one of the compounds to the liquid vehicle (water or SSV) in a vial and then vortexing the mixture for 3 min with a stir bar inside.
MPTP mouse models of PD are described by (Przedborski & Vila, 2003). […] Behavioral testing via the wire test and tissue harvesting followed.
Copper uptake in brain and in plasma was measured by inductively-coupled plasma mass spectrometry (ICPMS) determination of the naturally-occurring copper isotope Cu-63. Brain tissue was obtained from the left hemisphere of the brain.

Where [2] appears, read: MPTP-lesioned mice, 30 mg/kg API oral for 21 days.
Setting [3] is: MPTP-lesioned mice, 30 mg/kg API oral for 21 days, ICPMS.

In the case of `CNC1=NN=C(C)C(C)=NN=C(NC)[S][Cu][S]1` [CuATSM, Copper(II) diacetyl-di(N4-methyl)thiosemicarbazone, reference compound], the stool frequency entry in the data set on MPTP lesioned mice is “improved stool frequency”. In data set [1] (mouse, in vivo, po, 30 mg/kg), the “Cu-63 in brain, Average” value stood at 18.48 µg/g and the “Cu-63 in plasma, Average” value is recorded as 5.40 μmol/ltr.

As for `CNC1=NN=C(C)C(C)=NN=C(NC)[S][Cu][S]1.O=C(O)C(O)C(O)C(O)C(O)CO.O=C(O)C(O)C(O)C(O)C(O)CO` [CuATSM:gluconic acid (1:2)], in data set [1] (setting [2]), the “Cu-63 concentrations in brain tissue as compared to the SSV control” value is “significant (all p<0.001) increase” and the “Cu-63 concentrations in plasma as compared to the SSV control” value is on record as “No treatments resulted in significant (all p>0.05) change”. Moreover, in data set [1] (setting [3]), the “Cu-63 in brain, Average” value was found to be 22.20 µg/g and the “Cu-63 in plasma, Average” value worked out at 5.27 μmol/ltr.

As for `CNC1=NN=C(C)C(C)=NN=C(NC)[S][Cu][S]1.O=C1NS(=O)(=O)c2ccccc21.O=C1NS(=O)(=O)c2ccccc21` [CuATSM:saccharin (1:2)], in data set [1] (setting [2]), the “Cu-63 concentrations in brain tissue as compared to the SSV control” value is on record as “significant (all p<0.001) increase” and the “Cu-63 concentrations in plasma as compared to the SSV control” value is reported as “No treatments resulted in significant (all p>0.05) change”. In addition, in data set [1] (setting [3]), the “Cu-63 in brain, Average” value is 14.66 µg/g and the “Cu-63 in plasma, Average” value turned out to be 6.13 μmol/ltr.
